Measurements from patent US20210254272A1, “TEXTILES HAVING ANTIMICROBIAL PROPERTIES” (Livinguard AG, priority 2015, published 2021).

Assays:
[1] = Leaching test: 100 g fabric soaked in 10 liters stagnant distilled water, 3 days (72 hours); format: physicochemical; settings: for Leaching of active ingredients / Leaching Test-Leaching of active ingredients: pad process; for Leaching of active ingredients: cured 180° C. 2 min; for Leaching Test-Leaching of active ingredients: 2 min
Method: (§1) The test procedure for leaching was as follows: 100 g (grams) of fabric as well as control fabrics were soaked in 10 liters of stagnant distilled water in a closed wide mouth jar. After 3 days (72 hours), the water samples were tested for leached substances as per standard analytical methods.
as §1, with “methods. A weight of 100 g fabric was chosen because in the preferred embodiment of the water filter as described further below, each filter comprises a strip of fabric with 210 g/m^2, 3 meters long and 0.16 meters wide, which corresponds to 100 g of fabric.” for “methods.”

[2] = Leaching: 10 grams fabric in 100 milliliters distilled water, 7 days, GC-MS; format: physicochemical
Method: To test for a potential leaching of the antimicrobial agents fixed to the textile material, the following test was performed. A test fabric of polyester 65%/cotton 35% with 210 g/m2 was treated with polyhexamethylenebiguanide (PHMB) 0.5%, silver chloride 0.075%, octadecylaminomethyl trihydroxysilylpropyl ammonium chloride (organosilane) 0.4%, and propiconazole 0.5%
The treated textile material was put into distilled water at a ratio of 1:10. Specifically, a fabric of 10 grams was soaked in 100 milliliters of distilled water. The fabric was incubated in the water for 7 days at room temperature, i.e. between 21 and 25° C.
Following said incubation time, the fabric was removed from the water and the exposed water was tested for the presence of the above five active ingredients using gas chromatography-mass spectrometry (GC-MS).

SMILES: CCCC1COC(Cn2cncn2)(c2ccc(Cl)cc2Cl)O1 (stereo not drawn) [Propiconazole, propiconazole]
- Leaching of active ingredients (in ppm) ([1]; exhaust 80° C., 60 min, dosage 1% o.w.f (test up to 5% o.w.f)): 3 ppm
- Leaching of active ingredients (in ppm) ([1]; exhaust 80° C., 60 min, dosage 2% o.w.f): 26 ppm
- Leaching of active ingredients (in ppm) ([1]; exhaust 80° C., 60 min, dosage 3% o.w.f): 40 ppm
- Leaching of active ingredients (in ppm) ([1]; exhaust 80° C., 60 min, dosage 4% o.w.f): 47 ppm
- Leaching of active ingredients (in ppm) ([1]; exhaust 80° C., 60 min, dosage 5% o.w.f): 73 ppm
- Leaching of active ingredients (in ppm) ([1]; exhaust 80 ° C., solution dosage 1% o.w.f, process time 10 min): 38 ppm
- Leaching of active ingredients (in ppm) ([1]; exhaust 80 ° C., solution dosage 1% o.w.f, process time 20 min): 26 ppm
- Leaching of active ingredients (in ppm) ([1]; exhaust 80 ° C., solution dosage 1% o.w.f, process time 30 min): 22 ppm
- Leaching of active ingredients (in ppm) ([1]; exhaust 80 ° C., solution dosage 1% o.w.f, process time 40 min): 15 ppm
- Leaching of active ingredients (in ppm) ([1]; exhaust 80 ° C., solution dosage 1% o.w.f, process time 50 min): 14 ppm
- Leaching of active ingredients (in ppm) ([1]; exhaust 80 ° C., solution dosage 1% o.w.f, process time 55 min): 7 ppm
- Leaching of active ingredients (in ppm) ([1]; exhaust 80 ° C., solution dosage 1% o.w.f, process time 60 min): 3 ppm
- Leaching of active ingredients (in ppm) ([1]; exhaust 80 ° C., solution dosage 1% o.w.f, process time 70 min): 3 ppm
- Leaching of active ingredients (in ppm) ([1]; exhaust 80 ° C., solution dosage 1% o.w.f, process time 80 min): 4 ppm
- Leaching of active ingredients (in ppm) ([1]; exhaust 80 ° C., solution dosage 1% o.w.f, process time 90 min): 7 ppm
- limit on the quantity of the agent that can be adhered to the textile in a non-leaching or substantially non-leaching manner ([1]; from Experimental examples I.1 and I.4): about 0.25 % o.w.f.
- Leaching of active ingredients ([1]; mixture 1 gm/lit each): 9 ppm
- Leaching of active ingredients ([1]; mixture 1 gm/lit each, after Washing): 0.4 ppm
- Leaching of active ingredients ([1]; mixture 5 gm/lit each): 13 ppm
- Leaching of active ingredients ([1]; mixture 5 gm/lit each, after Washing): 0.7 ppm
- Leaching of active ingredients ([1]; mixture 10 gm/lit each): 24 ppm
- Leaching of active ingredients ([1]; mixture 10 gm/lit each, after Washing): 0.9 ppm
- Leaching Test-Leaching of active ingredients ([1]; single agent 5 gm/lit, curing 120° C.): 9 ppm
- Leaching Test-Leaching of active ingredients ([1]; single agent 5 gm/lit, curing 140° C.): 7 ppm
- Leaching Test-Leaching of active ingredients ([1]; single agent 5 gm/lit, curing 150° C.): 5 ppm
- Leaching Test-Leaching of active ingredients ([1]; single agent 5 gm/lit, curing 160° C.): 4 ppm
- Leaching Test-Leaching of active ingredients ([1]; single agent 5 gm/lit, curing 180° C.): 1 ppm
- Leaching Test-Leaching of active ingredients ([1]; single agent 10 gm/lit, curing 120° C.): 15 ppm
- Leaching Test-Leaching of active ingredients ([1]; single agent 10 gm/lit, curing 140° C.): 14 ppm
- Leaching Test-Leaching of active ingredients ([1]; single agent 10 gm/lit, curing 150° C.): 13 ppm
- Leaching Test-Leaching of active ingredients ([1]; single agent 10 gm/lit, curing 160° C.): 8 ppm
- Leaching Test-Leaching of active ingredients ([1]; single agent 10 gm/lit, curing 180° C.): 2 ppm
- Leaching of active ingredient (in ppm) ([1]; solution dosage 0.10% o.w.f, exhaust temperature 40° C., process time 60 min): 0 ppm
- Leaching of active ingredient (in ppm) ([1]; solution dosage 0.10% o.w.f, exhaust temperature 60° C., process time 60 min): 0 ppm
- Leaching of active ingredient (in ppm) ([1]; solution dosage 0.10% o.w.f, exhaust temperature 65° C., process time 60 min): 0 ppm
- Leaching of active ingredient (in ppm) ([1]; solution dosage 0.10% o.w.f, exhaust temperature 70° C., process time 60 min): 0 ppm
- Leaching of active ingredient (in ppm) ([1]; solution dosage 0.10% o.w.f, exhaust temperature 75° C., process time 60 min): 0 ppm
- Leaching of active ingredient (in ppm) ([1]; solution dosage 0.10% o.w.f, exhaust temperature 80° C., process time 60 min): 0 ppm
- Leaching of active ingredient (in ppm) ([1]; solution dosage 0.10% o.w.f, exhaust temperature 85° C., process time 60 min): 1 ppm
- Leaching of active ingredient (in ppm) ([1]; solution dosage 0.10% o.w.f, exhaust temperature 90° C., process time 60 min): 2 ppm
- Leaching of active ingredient (in ppm) ([1]; solution dosage 0.10% o.w.f, exhaust temperature 95° C., process time 60 min): 3 ppm
- Leaching of active ingredient (in ppm) ([1]; solution dosage 0.20% o.w.f, exhaust temperature 40° C., process time 60 min): 0 ppm
- Leaching of active ingredient (in ppm) ([1]; solution dosage 0.20% o.w.f, exhaust temperature 60° C., process time 60 min): 0 ppm
- Leaching of active ingredient (in ppm) ([1]; solution dosage 0.20% o.w.f, exhaust temperature 65° C., process time 60 min): 0 ppm
- Leaching of active ingredient (in ppm) ([1]; solution dosage 0.20% o.w.f, exhaust temperature 70° C., process time 60 min): 0 ppm
- Leaching of active ingredient (in ppm) ([1]; solution dosage 0.20% o.w.f, exhaust temperature 75° C., process time 60 min): 0 ppm
- Leaching of active ingredient (in ppm) ([1]; solution dosage 0.20% o.w.f, exhaust temperature 80° C., process time 60 min): 0 ppm
- Leaching of active ingredient (in ppm) ([1]; solution dosage 0.20% o.w.f, exhaust temperature 85° C., process time 60 min): 2 ppm
- Leaching of active ingredient (in ppm) ([1]; solution dosage 0.20% o.w.f, exhaust temperature 90° C., process time 60 min): 4 ppm
- Leaching of active ingredient (in ppm) ([1]; solution dosage 0.20% o.w.f, exhaust temperature 95° C., process time 60 min): 4 ppm
- Leaching of active ingredient (in ppm) ([1]; solution dosage 0.50% o.w.f, exhaust temperature 40° C., process time 60 min): 0 ppm
- Leaching of active ingredient (in ppm) ([1]; solution dosage 0.50% o.w.f, exhaust temperature 60° C., process time 60 min): 1 ppm
- Leaching of active ingredient (in ppm) ([1]; solution dosage 0.50% o.w.f, exhaust temperature 65° C., process time 60 min): 1 ppm
- Leaching of active ingredient (in ppm) ([1]; solution dosage 0.50% o.w.f, exhaust temperature 70° C., process time 60 min): 1 ppm
- Leaching of active ingredient (in ppm) ([1]; solution dosage 0.50% o.w.f, exhaust temperature 75° C., process time 60 min): 1 ppm
- Leaching of active ingredient (in ppm) ([1]; solution dosage 0.50% o.w.f, exhaust temperature 80° C., process time 60 min): 1 ppm
- Leaching of active ingredient (in ppm) ([1]; solution dosage 0.50% o.w.f, exhaust temperature 85° C., process time 60 min): 3 ppm
- Leaching of active ingredient (in ppm) ([1]; solution dosage 0.50% o.w.f, exhaust temperature 90° C., process time 60 min): 5 ppm
- Leaching of active ingredient (in ppm) ([1]; solution dosage 0.50% o.w.f, exhaust temperature 95° C., process time 60 min): 6 ppm
- Leaching of active ingredient (in ppm) ([1]; solution dosage 0.80% o.w.f, exhaust temperature 40° C., process time 60 min): 0 ppm
- Leaching of active ingredient (in ppm) ([1]; solution dosage 0.80% o.w.f, exhaust temperature 60° C., process time 60 min): 2 ppm
- Leaching of active ingredient (in ppm) ([1]; solution dosage 0.80% o.w.f, exhaust temperature 65° C., process time 60 min): 1 ppm
- Leaching of active ingredient (in ppm) ([1]; solution dosage 0.80% o.w.f, exhaust temperature 70° C., process time 60 min): 2 ppm
- Leaching of active ingredient (in ppm) ([1]; solution dosage 0.80% o.w.f, exhaust temperature 75° C., process time 60 min): 2 ppm
- Leaching of active ingredient (in ppm) ([1]; solution dosage 0.80% o.w.f, exhaust temperature 80° C., process time 60 min): 1 ppm
- Leaching of active ingredient (in ppm) ([1]; solution dosage 0.80% o.w.f, exhaust temperature 85° C., process time 60 min): 4 ppm
- Leaching of active ingredient (in ppm) ([1]; solution dosage 0.80% o.w.f, exhaust temperature 90° C., process time 60 min): 6 ppm
- Leaching of active ingredient (in ppm) ([1]; solution dosage 0.80% o.w.f, exhaust temperature 95° C., process time 60 min): 7 ppm
- Leaching of active ingredient (in ppm) ([1]; solution dosage 1.00% o.w.f, exhaust temperature 40° C., process time 60 min): 0 ppm
- Leaching of active ingredient (in ppm) ([1]; solution dosage 1.00% o.w.f, exhaust temperature 60° C., process time 60 min): 8 ppm
- Leaching of active ingredient (in ppm) ([1]; solution dosage 1.00% o.w.f, exhaust temperature 65° C., process time 60 min): 7 ppm
- Leaching of active ingredient (in ppm) ([1]; solution dosage 1.00% o.w.f, exhaust temperature 70° C., process time 60 min): 4 ppm
- Leaching of active ingredient (in ppm) ([1]; solution dosage 1.00% o.w.f, exhaust temperature 75° C., process time 60 min): 3 ppm
- Leaching of active ingredient (in ppm) ([1]; solution dosage 1.00% o.w.f, exhaust temperature 80° C., process time 60 min): 1.5 ppm
- Leaching of active ingredient (in ppm) ([1]; solution dosage 1.00% o.w.f, exhaust temperature 85° C., process time 60 min): 8 ppm
- Leaching of active ingredient (in ppm) ([1]; solution dosage 1.00% o.w.f, exhaust temperature 90° C., process time 60 min): 9 ppm
- Leaching of active ingredient (in ppm) ([1]; solution dosage 1.00% o.w.f, exhaust temperature 95° C., process time 60 min): 9 ppm
- Extracted water Conc, ppm [2]: BDL (BDL-below detection limit Detection limit: 1 parts per million (ppm))
